Test systems include DMS 273 small cell lung; SN12C renal; DMS 114 small cell lung; MOLT-4 leukemia; M19-MEL melanoma; M14 melanoma; A549 NSCLC; KM20L2 colon; HL-60(TB) leukemia; T-47D breast; BT-549 breast; MDA-MB-231 breast.
Holding throughout (assay): growth of human tumour cells (NCI), 48 h

Each structure is given as a SMILES string. Several values for one entry are separate records, joined by “and”; a condition that tells them apart may be missing. Equal values may be shown once.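 Cells were grown in 96-well plates and exposed to each compound for 48 hours at five concentrations; endpoints were interpolated linearly between bracketing concentrations, or set to the highest concentration if not reached. At the GI50, growth is halved. At the TGI there is no net growth.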 Bounds are passed on as bounds.

From PubChem BioAssay (NCI) come the findings set out here.

As to `O=C(O)c1cc2sc(C(=O)O)cc2s1`, the TGI in the test on DMS 273 small cell lung, in the test on SN12C renal, in the test on DMS 114 small cell lung, with MOLT-4 leukemia, with M19-MEL melanoma and in the test with M14 melanoma was above 100 µM each time. Further, the TGI in the test with A549 NSCLC, in the test on KM20L2 colon and in the test with HL-60(TB) leukemia was above 100 µM in each case.
For `CCCCCCCCC[C@@H]1C[C@H](O)[C@H](Cc2ccccc2)N1C(=O)OC(C)(C)C`, the TGI with DMS 273 small cell lung was 32.8 µM; in the test on SN12C renal it was 31 µM; in the test with DMS 114 small cell lung, 32.4 µM; in the test on MOLT-4 leukemia it was above 100 µM; in the test with M19-MEL melanoma, 30.9 µM; in the test on M14 melanoma it was 38.4 µM. In addition, the TGI in the test on A549 NSCLC was found to be 32.6 µM; with KM20L2 colon, 34.5 µM; in the test on HL-60(TB) leukemia, 48.7 µM.
Turning to `CSc1nc(NC2OC(CO)C(O)C(O)C2O)c(N)c(=O)[nH]1` (stereo not given), the TGI with DMS 273 small cell lung, in the test with SN12C renal, with DMS 114 small cell lung, in the test with MOLT-4 leukemia, in the test on M19-MEL melanoma and in the test with A549 NSCLC was above 100 µM throughout. Besides, the TGI in the test on KM20L2 colon and in the test on HL-60(TB) leukemia was above 100 µM each time.
In the case of `O=[N+]([O-])c1cnccc1-n1nnc2ccccc21`, the TGI in the test on DMS 273 small cell lung is 27.2 µM; in the test on SN12C renal, 37.7 µM; in the test with DMS 114 small cell lung, 26.6 µM; with MOLT-4 leukemia, above 75.7 µM; in the test with M19-MEL melanoma, 49.6 µM; with A549 NSCLC, above 90.1 µM. Besides, the TGI in the test on KM20L2 colon was above 100 µM; in the test on HL-60(TB) leukemia, above 54.7 µM.
In the case of `O=c1n(CC2CO2)c2ccccc2n1CC1CS1` (stereo not given), the TGI in the test with DMS 273 small cell lung, in the test with SN12C renal, in the test on DMS 114 small cell lung, with MOLT-4 leukemia, with M19-MEL melanoma and with M14 melanoma was above 100 µM each time. For the same molecule, the TGI is above 100 µM in the test with A549 NSCLC, above 100 µM in the test on KM20L2 colon and 87.7 µM in the test on HL-60(TB) leukemia.
Turning to `COc1ccc(Nc2cnc3cc(N)ccc3n2)cc1OC`, the TGI with DMS 273 small cell lung, in the test with SN12C renal, with DMS 114 small cell lung, in the test on MOLT-4 leukemia, in the test on M19-MEL melanoma and with M14 melanoma was above 100 µM throughout. Further, the TGI with KM20L2 colon is above 100 µM; with HL-60(TB) leukemia, 62.1 µM.
`Cc1nc2ccccc2n1Cc1ccc(NC(=S)NC2CCCCC2)cc1`: the TGI in the test with SN12C renal is above 100 µM; with MOLT-4 leukemia it was above 100 µM; in the test on T-47D breast it was above 82.3 µM; in the test on BT-549 breast, above 100 µM; with MDA-MB-231 breast it was above 100 µM; in the test with M14 melanoma it was above 100 µM. Further, the TGI with A549 NSCLC and in the test with HL-60(TB) leukemia was above 100 µM throughout.
In the case of `COc1ccc(OC/C(N=Cc2cccnc2)=N/NC(=O)c2ccncc2)cc1`, the TGI in the test with SN12C renal, in the test on MOLT-4 leukemia, in the test with T-47D breast, in the test with BT-549 breast, with MDA-MB-231 breast and in the test with M14 melanoma was above 100 µM in each case. For the same molecule, the TGI in the test on A549 NSCLC and in the test on HL-60(TB) leukemia was above 100 µM in each case.
Take `CC(C)(C)OC(=O)/C=C/[C@@H](CCC(=O)/C=C/[C@H](/C=C\CCCC(=O)O)NC1(c2ccccc2)c2ccccc2-c2ccccc21)O[Si](C)(C)C(C)(C)C`: the TGI in the test on SN12C renal was 32.4 µM; in the test with MOLT-4 leukemia, above 100 µM; in the test with T-47D breast, 55.6 µM; in the test on BT-549 breast it was 33 µM; in the test on MDA-MB-231 breast, 28.4 µM; with M14 melanoma, 29.4 µM. Moreover, the TGI was found to be 37.2 µM in the test with A549 NSCLC and 86.1 µM with HL-60(TB) leukemia.
`CCOC(=O)C(/C=N/C(N)=S)=C(/O)c1ccccc1`: the TGI with SN12C renal, with MOLT-4 leukemia, in the test on T-47D breast, with BT-549 breast, with MDA-MB-231 breast and in the test on M14 melanoma was above 100 µM each time. Moreover, the TGI in the test on A549 NSCLC and in the test on HL-60(TB) leukemia was above 100 µM in each case.
For the molecule `COC(=O)/C=C/c1cc(OC)c2c(c1)C(C(=O)OC)C(c1ccc(O)c(OC)c1)O2` (stereo not given), the GI50 in the test on SN12C renal was 13.9 µM and 9.44 µM and 4.63 µM; in the test with MOLT-4 leukemia, 5.39 µM and 4.7 µM and 1.94 µM; with BT-549 breast, 4.54 µM and 1.87 µM and 18.2 µM; with HL-60(TB) leukemia it was 1.14 µM and 1.81 µM and 0.325 µM. Moreover, the TGI was above 100 µM with SN12C renal; > 100 µM and 16.7 µM in the test on MOLT-4 leukemia; > 100 µM and 31.9 µM and > 57.6 µM with T-47D breast; > 42.3 µM and 18.9 µM and > 90.5 µM in the test on BT-549 breast; > 25.8 µM and 18.8 µM and 42.1 µM with MDA-MB-231 breast; above 100 µM in the test with M14 melanoma. The same molecule had a TGI with A549 NSCLC above 100 µM.
In the case of `CCN(CC)CCCNc1c2cc(OC)ccc2nc2cccc([N+](=O)[O-])c12`, the TGI in the test on SN12C renal worked out at 0.402 µM; in the test with MOLT-4 leukemia, 0.554 µM; with T-47D breast, 0.618 µM; in the test with BT-549 breast it was 0.49 µM; with MDA-MB-231 breast, 0.319 µM; in the test with M14 melanoma it was 0.24 µM. Also, the TGI in the test with A549 NSCLC amounted to 0.507 µM; in the test on HL-60(TB) leukemia, 0.511 µM.
For the molecule `CCOC(=O)C(C(=O)OCC)C(=S)NC1OC(COC(C)=O)C(OC(C)=O)C(OC(C)=O)C1OC(C)=O` (stereo not given), the TGI with SN12C renal, in the test on MOLT-4 leukemia, in the test with T-47D breast, with BT-549 breast, in the test on MDA-MB-231 breast and in the test with M14 melanoma was above 100 µM each time. Besides, the TGI with A549 NSCLC and in the test with HL-60(TB) leukemia was above 100 µM each time.
